Source: patent US10351575B2, “Bicyclic urea, thiourea, guanidine and cyanoguanidine compounds useful for the treatment of pain” (Array BioPharma Inc., priority 2012, dated 2019)

The compounds below were run against His-tagged recombinant human TrkA (Homo sapiens (Human), UniProt P04629) (assay: TrkA LanthaScreen Eu Kinase Binding Assay). Conditions: averaged IC50; TR-FRET binding, 60 min, 22° C.; read-out: TrkA Enzyme IC50.
Method: TrkA binding activity was determined in a TrkA LanthaScreen™ Eu Kinase Binding Assay. 5 nM His-tagged recombinant human TrkA (6HIS tagged cytoplasmic domain from Invitrogen, Catalog No. PV3144) was incubated with 4 nM Alexa-Fluor® Tracer 236 (Invitrogen Cat. No. PV5592), 2 nM biotinylated anti-His (Invitrogen Cat. No. PV6090), and 2 nM europium-labeled Streptavidin (Invitrogen Cat. No. PV5899), in buffer (25 mM MOPS, pH 7.5, 5 mM MgCl2, 0.005% Triton X-100). Three fold serial dilutions of compounds of the invention in DMSO were added to a final percentage of 2% DMSO. After 60-minute incubation at 22° C., the reaction was measured using the EnVision mutlimode plate reader (PerkinElmer) via TR-FRET dual wavelength detection at […]. The percent of control was calculated using a ratiometric emission factor. The IC50 values were determined by fitting a four parameter model to the percent of control data.

Chain of His-tagged recombinant human TrkA (P04629 440-796): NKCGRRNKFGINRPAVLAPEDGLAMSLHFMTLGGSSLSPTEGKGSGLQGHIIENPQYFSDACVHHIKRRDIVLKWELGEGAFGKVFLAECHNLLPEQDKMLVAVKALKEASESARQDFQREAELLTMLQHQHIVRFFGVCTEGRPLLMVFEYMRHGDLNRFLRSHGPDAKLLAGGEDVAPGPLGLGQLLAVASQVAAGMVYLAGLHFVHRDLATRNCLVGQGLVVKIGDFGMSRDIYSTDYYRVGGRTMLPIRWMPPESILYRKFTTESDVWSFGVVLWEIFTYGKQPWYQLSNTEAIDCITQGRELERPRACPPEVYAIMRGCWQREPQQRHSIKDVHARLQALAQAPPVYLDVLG

Structure (SMILES)	IC50 [nM]
COC(=O)c1ccc2c(c1)[C@@H](NC(=O)Nc1c(C)c(C)nn1-c1ccccc1)[C@H](O)CC2(C)C (relative stereo) [Example 99, trans-methyl 8-(3-(3,4-dimethyl-1-phenyl-1H-pyrazol-5-yl)ureido)-7-hydroxy-5,5-dimethyl-5,6,7,8-tetrahydronaphthalene-2-carboxylate]	< 100
Cc1ncc(-c2nn(-c3ccccc3)c(NC(=O)N[C@@H]3c4ccccc4CC[C@H]3O)c2C)cn1 (relative stereo) [Example 118, 1-(trans-2-hydroxy-1,2,3,4-tetrhydronaphthalen-1-yl)-3-(4-methyl-3-(2-methylpyrimidin-5-yl)-1-phenyl-1H-pyrazol-5-yl)urea]	< 100
COc1ncc(-c2nn(-c3ccccc3)c(NC(=O)N[C@@H]3c4ccccc4CC[C@H]3O)c2C)cn1 (relative stereo) [Example 119, 1-(trans-2-hydroxy-1,2,3,4-tetrahydronaphthalen-1-yl)-3-(3-(2-methoxypyrimidin-5-yl)-4-methyl-1-phenyl-1H-pyrazol-5-yl)urea]	< 100
CNC(=O)c1nn(-c2ccccc2)c(NC(=O)N[C@@H]2c3cc(COC)ccc3C(C)(C)C[C@H]2O)c1C (relative stereo) [Example 120, 5-(3-(trans-2-hydroxy-7-(methoxymethyl)-4,4-dimethyl-1,2,3,4-tetrahydronaphthalen-1-yl)ureido)-N,4-dimethyl-1-phenyl-1H-pyrazole-3-carboxamide]	< 100
Cc1nn(-c2ccccc2)c(NC(=O)N[C@@H]2c3ccccc3CC[C@H]2O)c1C (relative stereo) [Example 121, 1-(3,4-dimethyl-1-phenyl-1H-pyrazol-5-yl)-3-(trans-2-hydroxy-1,2,3,4-tetrahydronaphthalen-1-yl)urea]	< 100
Cc1c(OCC2CCN(C)CC2)nn(-c2ccccc2)c1NC(=O)N[C@@H]1c2ccccc2C(C)(C)C[C@H]1O (relative stereo) [Example 122, 1-(trans-2-hydroxy-4,4-dimethyl-1,2,3,4-tetrahydronaphthalen-1-yl)-3-(4-methyl-3-((1-methylpiperidin-4-yl)methoxy)-1-phenyl-1H-pyrazol-5-yl)urea]	< 100
Cc1c(OCC2CCN(C)CC2)nn(-c2ccccc2)c1NC(=O)N[C@@H]1c2ccccc2CC[C@H]1O (relative stereo) [Example 123, 1-(trans-2-hydroxy-1,2,3,4-tetrahydronaphthalen-1-yl)-3-(4-methyl-3-((1-methylpiperidin-4-yl)methoxy)-1-phenyl-1H-pyrazol-5-yl)urea]	< 100
CNC(=O)c1nn(-c2ccccc2)c(NC(=O)N[C@@H]2c3ccccc3C(C)(C)C[C@H]2O)c1C (relative stereo) [Example 124, 5-(3-(trans-2-hydroxy-4,4-dimethyl-1,2,3,4-tetrahydronaphthalen-1-yl)ureido)-N,4-dimethyl-1-phenyl-1H-pyrazole-3-carboxamide]	< 100
Cc1nn(-c2ccccc2)c(NC(=O)N[C@@H]2c3ccccc3CCC[C@H]2O)c1C (relative stereo) [Example 126, 1-(3,4-dimethyl-1-phenyl-1H-pyrazol-5-yl)-3-(trans-6-hydroxy-6,7,8,9-tetrahydro-5H-benzo[7]annulen-5-yl)urea]	100 to 1000
Cc1ncc(-c2nn(-c3ccccc3)c(NC(=O)N[C@@H]3c4ccccc4CCC[C@H]3O)c2C)cn1 (relative stereo) [Example 127, 1-(trans-6-hydroxy-6,7,8,9-tetrahydro-5H-benzo[7]annulen-5-yl)-3-(4-methyl-3-(2-methylpyrimidin-5-yl)-1-phenyl-1H-pyrazol-5-yl)urea]	100 to 1000
COc1ncc(-c2nn(-c3ccccc3)c(NC(=O)N[C@@H]3c4ccccc4CCC[C@H]3O)c2C)cn1 (relative stereo) [Example 128, 1-(trans-6-hydroxy-6,7,8,9-tetrahydro-5H-benzo[7]annulen-5-yl)-3-(3-(2-methoxypyrimidin-5-yl)-4-methyl-1-phenyl-1H-pyrazol-5-yl)urea]	100 to 1000
Cc1c(-c2cnn(C)c2)nn(-c2ccccc2)c1NC(=O)N[C@@H]1c2ccccc2C2(CCC2)[C@H]1O (relative stereo) [Example 142, 1-(1′,4-dimethyl-1-phenyl-1H,1′H-[3,4′-bipyrazol]-5-yl)-3-(trans-2′-hydroxy-2′,3′-dihydrospiro[cyclobutane-1,1′-inden]-3′-yl)urea]	< 100
COc1nn(-c2ccccc2)c(NC(=O)N[C@@H]2c3ccccc3C3(CC3)C[C@H]2O)c1C (relative stereo) [Example 152, 1-(trans-3′-hydroxy-3′,4′-dihydro-2′H-spiro[cyclopropane-1,1′-naphthalen]-4′-yl)-3-(3-methoxy-4-methyl-1-phenyl-1H-pyrazol-5-yl)urea]	< 100

Further lines, results first:

IC50 [nM]	Structure (SMILES)
< 100	Cc1c(-c2cnn(C)c2)nn(-c2ccccc2)c1NC(=O)N[C@@H]1c2ccccc2CC[C@H]1O (relative stereo) [Example 101, 1-(1′,4-dimethyl-1-phenyl-1H,1′H-[3,4′-bipyrazol]-5-yl)-3-(trans-2-hydroxy-1,2,3,4-tetrahydronaphthalen-1-yl)urea]
< 100	COCc1ccc2c(c1)[C@@H](NC(=O)Nc1c(C)c(-c3cnn(C)c3)nn1-c1ccccc1)[C@H](O)CC2(C)C (relative stereo) [Example 102, 1-(1′,4-dimethyl-1-phenyl-1H,1′H-[3,4′-bipyrazol]-5-yl)-3-(trans-2-hydroxy-7-(methoxymethyl)-4,4-dimethyl-1,2,3,4-tetrahydronaphthalen-1-yl)urea]
< 100	Cc1c(-c2cnn(C)c2)nn(-c2ccccc2)c1NC(=O)N[C@@H]1c2cc(Cl)ccc2C(C)(C)C[C@H]1O (relative stereo) [Example 104, 1-(trans-7-chloro-2-hydroxy-4,4-dimethyl-1,2,3,4-tetrahydronaphthalen-1-yl)-3-(1′,4-dimethyl-1-phenyl-1H,1′H-[3,4′-bipyrazol]-5-yl)urea]
< 100	Cc1c(-c2cnn(C)c2)nn(-c2ccccc2)c1NC(=O)N[C@@H]1c2ccccc2C(C)(C)C[C@H]1O (relative stereo) [Example 105, 1-(1′,4-dimethyl-1-phenyl-1H,1′H-[3,4′-bipyrazol]-5-yl)-3-(trans-2-hydroxy-4,4-dimethyl-1,2,3,4-tetrahydronaphthalen-1-yl)urea]
< 100	Cc1c(-c2ccc(=O)n(C)c2)nn(-c2ccccc2)c1NC(=O)N[C@@H]1c2ccccc2C(C)(C)C[C@H]1O (relative stereo) [Example 106, 1-(trans-2-hydroxy-4,4-dimethyl-1,2,3,4-tetrahydronaphthalen-1-yl)-3-(4-methyl-3-(1-methyl-6-oxo-1,6-dihydropyridin-3-yl)-1-phenyl-1H-pyrazol-5-yl)urea]
< 100	Cc1c(-c2ccn(C)c(=O)c2)nn(-c2ccccc2)c1NC(=O)N[C@@H]1c2ccccc2C(C)(C)C[C@H]1O (relative stereo) [Example 107, 1-(trans-2-hydroxy-4,4-dimethyl-1,2,3,4-tetrahydronaphthalen-1-yl)-3-(4-methyl-3-(1-methyl-2-oxo-1,2-dihydropyridin-4-yl)-1-phenyl-1H-pyrazol-5-yl)urea]
< 100	CNC(=O)c1nn(-c2ccccc2)c(NC(=O)N[C@@H]2c3cc(Cl)ccc3C(C)(C)C[C@H]2O)c1C (relative stereo) [Example 125, 5-(3-(trans-7-chloro-2-hydroxy-4,4-dimethyl-1,2,3,4-tetrahydronaphthalen-1-yl)ureido)-N,4-dimethyl-1-phenyl-1H-pyrazole-3-carboxamide]
